Key:
APOE4-expressing yeast = experiment: Growth rate of APOE4-expressing yeast in minimal CSM media; format: cell-based; details: ethanolamine 1 mM, choline chloride 1 mM, choline bitartrate 100 μg/ml, compared to APOE3 strain
Excerpt: The data was normalized to the growth of untreated yeast strain expressing GFP (control). Data are represented as mean±SD, n=3. […] Data is represented as mean±SD, n=6 (Student's t-test, ns p>0.05; *** p≤0.001).
In order to explore APOE4-mediated lipid dysregulation in an unbiased manner, yeast were built and interrogated that express APOE3 or APOE4 in to the secretory pathway.

APOE4 astrocytes [1] = experiment: Lipid droplet number (LipidTox) in iPSC-derived APOE4 astrocytes in supplemented media; format: cell-based, human; details: for LD number per cell: APOE4 astrocytes, supplemented media (CDP-choline 100 μM) vs vehicle
Procedure: (§1) Right, quantification of the lipid droplet number per cell (n=4 experiments). […] Lipid were extracted from APOE3 and APOE4 iPSC-derived astrocytes grown in a regular media or the media supplemented with CDP-choline (100 μM). Data is represented as mean±SD, n=3 experiments.

APOE4 microglia = details: interferon gamma
Excerpt: Data is represented as mean±SD, n=3-5 (ANOVA with multiple comparisons, * p≤0.05, ** p≤0.01).
Many AD risk factors are expressed in microglia including APOE, which along with TREM2, coordinates the transition from homeostatic to disease-associated state (Kraseman et al, 2017; Keren-Shaul et al, 2017).

EFAD mice = test system: EFAD mice
Excerpt: FIGS. 7A-7C show graphs depicting mice weight over time. FIG. 7A depicts mice fed a high choline diet (3.4 g/kg choline chloride) and minimum recommended choline diet (0.7 g/kg choline chloride) for one month. FIG. 7B depicts mice fed a sub-recommended choline diet (0.1 g/kg choline chloride) compared to standard choline (1.1 g/kg choline chloride) for one month. FIG. 7C depicts mice fed a high choline diet (3.4 g/kg choline chloride) and minimum recommended choline diet (0.7 g/kg choline chloride) for three months.
The “EFAD” APOE knock-in mouse were selected, where the endogenous Apoe locus is replaced with the human isoform of APOE2, APOE3, or APOE4 in 5×FAD mice, and where APOE isoform effects on disease progression have been documented (Tai et al, 2017). Custom chow containing the National Research Council (NRC) minimum, (0.7 g/kg choline chloride) and NRC maximum (3.4 g/kg choline chloride) was manufactured and fed these to EFAD mice for 4-12 weeks (˜84 days).

APOE3 astrocytes = experiment: Lipid droplet quantification (LipidTox) in iPSC-derived astrocytes treated with oleic acid; format: cell-based, human; details: oleic acid 20 μM vs vehicle
Excerpt: (§2) FIG. 1A is a schematic depicting the use of isogenic astrocytes derived from patient-derived iPSCs and the lipidomic analysis. FIG. 1B is a heatmap showing the fold change (log 2) between APOE4/APOE4 and APOE3/APOE3 in abundance of phospholipids (˜150 lipid species, upper panel) and triglycerides (˜120 species, lower panel). FIG. 1C is a graph presenting a fold change difference of the number of unsaturated bonds in fatty acids attached to triglycerides (TAGs). […] Data is represented as mean±SD (Student's t-test, **** p≤0.0001). FIG. 1E is a fluorescent microscopy images of the APOE3/APOE3 and APOE4/APOE4 astrocytes stained with an anti-Perilipin 2 antibody. Right, quantification of the Perilipin-2 foci per cell (each point (n) is an average of four wells, n=4). Data is represented as mean±SD (Student's t-test, **** p≤0.0001). FIG. 1F is a quantification of lipid droplets in astrocytes treated with vehicle (control) or with oleic acid (20 μM) (n=4 experiments).
(§3) APOE is expressed in several organs, with the highest expression in the liver, followed by the brain. In the brain, astrocytes and to some extent microglia are the major cell types that express APOE in the brain (Kim, Basak et al. 2009). It was hypothesized that APOE4-mediated lipid dysregulation contributes to its role as a disease risk factor. […]

APOE4 astrocytes [2] = experiment: as above; format: cell-based, human; details: oleic acid 20 μM vs vehicle
Excerpt: as §2, §3

APOE4 astrocytes [3] = experiment: Intracellular TAGs and their unsaturation extracted from iPSC-derived astrocytes; format: cell-based, human; details: CDP-choline 100 μM vs regular media
Procedure: as §1

[4] = chow 0.7 g/kg and 3.4 g/kg choline chloride, 4-12 weeks
[5] = diets 0.1, 0.7, 1.1, 3.4 g/kg choline chloride, one or three months

Q: How did the “growth of APOE4 yeast in supplemented media” value (shortened to “growth of APOE4 yeast”) (APOE4-expressing yeast) turn out when C[N+](C)(C)CCO.[Cl-] [choline chloride] was run?
A: sufficient to suppress the APOE4-associated growth defect

Q: What about the “LD number per cell” value (APOE4 astrocytes [1]) of the same compound?
A: significant decrease in the LD number, down to the levels found in APOE3-expressing astrocytes

Q: What about the “lipid droplet accumulation, dose dependence” value (APOE4 astrocytes [1]; choline chloride 1 μM, 10 μM, 100 μM in astrocyte media, extended culture 14 days) of the same compound?
A: improves lipid droplet accumulation in a dose-dependent manner

Q: What about the “lipid droplet volume, APOE4 vs APOE3 microglia” value (APOE4 microglia; supplemented 65 μM Choline Chloride vs low 15 μM, extended culture) of the same compound?
A: no difference is detected

Q: And the IL-1b induction (APOE4 microglia; supplemented 250 μM Choline Chloride vs low 65 μM)?
A: rescued

Q: And the general health (EFAD mice; [4])?
A: general health appeared normal

Q: And the toxicity (EFAD mice; [4])?
A: no clear indication of toxicity

Q: What about the “body condition or appetite” value (EFAD mice; [5]) of the same compound?
A: no significant defects

Q: And the “mice weight over time” value (EFAD mice; [5])?
A: gained appropriate weight

Q: For NCCO [ethanolamine], which “growth of APOE4 yeast” value (APOE4-expressing yeast) is on record?
A: did not influence growth

Q: How did the “growth of APOE4 yeast” value (APOE4-expressing yeast) turn out when C[N+](C)(C)CCO.O=C([O-])C(O)C(O)C(=O)O (stereo not shown) [choline bitartrate] was run?
A: sufficient to suppress the APOE4-associated growth defect

Q: What does the source list for CCCCCCCC/C=C\CCCCCCCC(=O)O [oleic acid]?
A: increase of lipid droplet content (APOE3 astrocytes): ~1.5 fold; lipid droplet accumulation (APOE4 astrocytes [2]): ~3 fold

Q: For C[N+](C)(C)CCOP(=O)(O)OP(=O)([O-])OC[C@H]1O[C@@H](n2ccc(N)nc2=O)[C@H](O)[C@@H]1O [CDP-choline], which “LD number per cell” value (APOE4 astrocytes [1]) is on record?
A: significant decrease in the LD number, down to the levels found in APOE3-expressing astrocytes

Q: And the “intracellular TAG levels” value (APOE4 astrocytes [3])?
A: normalizes

Q: And the “unsaturation of TAGs (number of unsaturated bonds in fatty acids)” value (APOE4 astrocytes [3])?
A: normalizes

Source: patent US20210353566A1, “THE USE OF CHOLINE SUPPLEMENTATION AS THERAPY FOR APOE4-RELATED DISORDERS” (Massachusetts Institute of Technology, priority 2020, published 2021)
